Assay [1] deals with ALK tyrosine kinase receptor (Homo sapiens) (UniProt Q9UM73). Briefly: Inhibition of ALK (unknown origin) at 1 uM by Ambit Kinomescan binding assay relative to control.
Assay [2] deals with Serine/threonine-protein kinase MARK1 (Homo sapiens) (UniProt Q9P0L2). Kind of assay: Inhibition of MARK1 (unknown origin) at 1 uM by Ambit Kinomescan binding assay relative to control; values are per cent of control.
Assay [3] addresses T1, Atrial natriuretic peptide receptor 2 (Homo sapiens) (UniProt P20594).
T1 sequence (whole entry): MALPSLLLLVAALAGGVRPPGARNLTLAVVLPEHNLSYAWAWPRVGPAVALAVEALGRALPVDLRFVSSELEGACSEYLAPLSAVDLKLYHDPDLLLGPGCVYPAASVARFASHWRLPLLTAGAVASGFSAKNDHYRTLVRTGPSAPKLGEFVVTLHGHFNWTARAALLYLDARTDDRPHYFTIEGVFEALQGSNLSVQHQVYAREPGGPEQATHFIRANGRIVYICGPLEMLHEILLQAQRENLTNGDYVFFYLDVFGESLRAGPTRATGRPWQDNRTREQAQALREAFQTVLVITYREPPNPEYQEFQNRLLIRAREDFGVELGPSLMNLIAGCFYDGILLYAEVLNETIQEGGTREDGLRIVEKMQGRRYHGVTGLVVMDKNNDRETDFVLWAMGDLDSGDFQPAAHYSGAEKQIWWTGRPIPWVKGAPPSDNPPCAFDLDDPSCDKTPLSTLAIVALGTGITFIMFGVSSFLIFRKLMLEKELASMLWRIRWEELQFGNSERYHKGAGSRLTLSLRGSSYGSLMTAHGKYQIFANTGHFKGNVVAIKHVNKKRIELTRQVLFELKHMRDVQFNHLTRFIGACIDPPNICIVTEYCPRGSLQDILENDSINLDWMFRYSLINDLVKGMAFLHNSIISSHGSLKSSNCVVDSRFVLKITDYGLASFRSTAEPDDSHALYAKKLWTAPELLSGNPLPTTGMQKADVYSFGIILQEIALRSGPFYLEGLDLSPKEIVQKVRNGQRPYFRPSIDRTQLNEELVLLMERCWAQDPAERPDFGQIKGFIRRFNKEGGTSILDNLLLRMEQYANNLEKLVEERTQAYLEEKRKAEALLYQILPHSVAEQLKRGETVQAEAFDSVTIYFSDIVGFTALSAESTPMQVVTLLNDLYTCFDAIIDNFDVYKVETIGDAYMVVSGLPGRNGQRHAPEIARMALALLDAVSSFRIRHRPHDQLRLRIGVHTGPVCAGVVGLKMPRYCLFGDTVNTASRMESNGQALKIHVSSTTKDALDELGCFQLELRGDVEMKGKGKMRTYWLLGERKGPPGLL
Kind of assay: Inhibition of ANPb Lys2 labeling site in human A-375 cells at 0.05 uM by KiNativ Profiling analysis relative to control. In kind it is cell-based.

Assay [4] has as its system Mast/stem cell growth factor receptor Kit (Homo sapiens), P10721 [L576P]. Briefly: Inhibition of KIT L576P mutant (unknown origin) at 1 uM by Ambit Kinomescan binding assay relative to control; values are per cent of control.
For assay [5], the target named is Mitogen-activated protein kinase 1 (Homo sapiens) (UniProt P28482). Briefly: Inhibition of ERK2 (unknown origin) at 10 uM by Ambit Kinomescan binding assay.
Mitogen-activated protein kinase 1 (Homo sapiens), sequence (P28482 whole entry): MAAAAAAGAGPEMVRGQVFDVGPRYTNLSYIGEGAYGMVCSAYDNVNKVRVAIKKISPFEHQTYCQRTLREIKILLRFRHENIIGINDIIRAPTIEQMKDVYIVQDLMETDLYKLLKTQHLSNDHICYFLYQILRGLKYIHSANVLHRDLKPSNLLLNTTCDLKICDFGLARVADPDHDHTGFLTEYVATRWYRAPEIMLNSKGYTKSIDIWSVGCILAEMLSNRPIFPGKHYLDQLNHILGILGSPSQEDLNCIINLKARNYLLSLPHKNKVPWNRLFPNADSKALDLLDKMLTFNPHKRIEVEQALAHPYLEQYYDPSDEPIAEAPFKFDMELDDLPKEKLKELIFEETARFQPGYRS
Assay [6] concerns the target TGF-beta receptor type-1 (Homo sapiens) (UniProt P36897). Kind of assay: Inhibition of TGFBR1 (unknown origin) at 10 uM by Ambit Kinomescan binding assay.
In assay [7] the target is Mitogen-activated protein kinase kinase kinase 20 (Homo sapiens, UniProt Q9NYL2). Kind of assay: Inhibition of ZAK K1 labeling site in human Huh-7 cells at 10 uM by KiNativ Profiling analysis relative to control. Format: cell-based.
Mitogen-activated protein kinase kinase kinase 20, sequence (Q9NYL2 2-800 limits assumed): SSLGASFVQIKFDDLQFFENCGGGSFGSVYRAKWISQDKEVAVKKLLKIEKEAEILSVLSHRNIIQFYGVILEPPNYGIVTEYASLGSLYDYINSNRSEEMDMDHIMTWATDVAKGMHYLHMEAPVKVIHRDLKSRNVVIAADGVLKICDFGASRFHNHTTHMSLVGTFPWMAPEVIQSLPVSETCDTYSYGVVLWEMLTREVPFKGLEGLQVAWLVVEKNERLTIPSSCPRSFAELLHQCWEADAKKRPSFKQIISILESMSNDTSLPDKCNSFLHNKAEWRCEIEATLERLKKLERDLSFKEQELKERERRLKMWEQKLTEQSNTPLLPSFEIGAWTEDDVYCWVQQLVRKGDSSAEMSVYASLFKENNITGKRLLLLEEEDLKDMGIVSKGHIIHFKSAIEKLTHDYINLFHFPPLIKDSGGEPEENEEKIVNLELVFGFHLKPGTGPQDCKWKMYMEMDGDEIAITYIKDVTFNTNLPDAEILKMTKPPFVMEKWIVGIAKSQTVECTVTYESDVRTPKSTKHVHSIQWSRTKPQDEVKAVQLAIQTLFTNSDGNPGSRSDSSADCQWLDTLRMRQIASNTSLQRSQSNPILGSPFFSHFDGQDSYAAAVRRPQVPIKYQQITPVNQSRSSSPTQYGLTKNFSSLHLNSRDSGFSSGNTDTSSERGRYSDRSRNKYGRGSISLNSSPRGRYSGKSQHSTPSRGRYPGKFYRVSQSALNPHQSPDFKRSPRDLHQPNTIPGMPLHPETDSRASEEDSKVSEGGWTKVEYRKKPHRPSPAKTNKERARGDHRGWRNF
Assay [8] concerns the target T2, Phosphatidylinositol 5-phosphate 4-kinase type-2 alpha (Homo sapiens) (UniProt P48426).
T2 sequence (whole entry): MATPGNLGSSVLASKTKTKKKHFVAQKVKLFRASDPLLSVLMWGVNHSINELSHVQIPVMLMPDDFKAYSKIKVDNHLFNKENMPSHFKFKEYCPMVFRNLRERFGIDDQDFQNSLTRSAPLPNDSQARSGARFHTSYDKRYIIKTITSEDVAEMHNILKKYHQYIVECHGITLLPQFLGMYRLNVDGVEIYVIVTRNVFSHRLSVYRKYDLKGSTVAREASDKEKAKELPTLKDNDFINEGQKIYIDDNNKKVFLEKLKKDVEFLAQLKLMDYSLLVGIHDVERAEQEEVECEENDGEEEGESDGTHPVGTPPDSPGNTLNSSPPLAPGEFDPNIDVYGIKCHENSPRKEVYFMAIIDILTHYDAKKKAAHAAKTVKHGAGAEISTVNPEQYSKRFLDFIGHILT
Kind of assay: Inhibition of PIP5K2A C2 labeling site in human Huh-7 cells at 10 uM by KiNativ Profiling analysis relative to control. Format: cell-based.

Assay [9] has as its target eIF-2-alpha kinase GCN2 (Homo sapiens) (UniProt Q9P2K8). Kind of assay: Inhibition of GCN2 domain2 Lys2 labeling site in human Huh-7 cell lysate at 1 uM by KiNativ Profiling analysis relative to control. In kind it is subcellular.
Assay [10] has as its target Serine/threonine-protein kinase 24 (Homo sapiens) (UniProt Q9Y6E0). Kind of assay: Inhibition of MST3 Lys2 labeling site harbouring DIKAANVLLSEHGEVK in human Huh-7 cell lysate at 1 uM by KiNativ Profiling analysis relative to control. In kind it is subcellular.
Assay [11] has as its target Serine/threonine-protein kinase/endoribonuclease IRE1 (Homo sapiens) (UniProt O75460). Kind of assay: Inhibition of IRE1 Lys2 labeling site in human Huh-7 cells at 1 uM by KiNativ Profiling analysis relative to control. Format: cell-based.

The source made the active and inactive calls. The rule behind the calls is not given here.

Mast/stem cell growth factor receptor Kit (Homo sapiens), P10721 [L576P], sequence (P10721 whole entry L576P): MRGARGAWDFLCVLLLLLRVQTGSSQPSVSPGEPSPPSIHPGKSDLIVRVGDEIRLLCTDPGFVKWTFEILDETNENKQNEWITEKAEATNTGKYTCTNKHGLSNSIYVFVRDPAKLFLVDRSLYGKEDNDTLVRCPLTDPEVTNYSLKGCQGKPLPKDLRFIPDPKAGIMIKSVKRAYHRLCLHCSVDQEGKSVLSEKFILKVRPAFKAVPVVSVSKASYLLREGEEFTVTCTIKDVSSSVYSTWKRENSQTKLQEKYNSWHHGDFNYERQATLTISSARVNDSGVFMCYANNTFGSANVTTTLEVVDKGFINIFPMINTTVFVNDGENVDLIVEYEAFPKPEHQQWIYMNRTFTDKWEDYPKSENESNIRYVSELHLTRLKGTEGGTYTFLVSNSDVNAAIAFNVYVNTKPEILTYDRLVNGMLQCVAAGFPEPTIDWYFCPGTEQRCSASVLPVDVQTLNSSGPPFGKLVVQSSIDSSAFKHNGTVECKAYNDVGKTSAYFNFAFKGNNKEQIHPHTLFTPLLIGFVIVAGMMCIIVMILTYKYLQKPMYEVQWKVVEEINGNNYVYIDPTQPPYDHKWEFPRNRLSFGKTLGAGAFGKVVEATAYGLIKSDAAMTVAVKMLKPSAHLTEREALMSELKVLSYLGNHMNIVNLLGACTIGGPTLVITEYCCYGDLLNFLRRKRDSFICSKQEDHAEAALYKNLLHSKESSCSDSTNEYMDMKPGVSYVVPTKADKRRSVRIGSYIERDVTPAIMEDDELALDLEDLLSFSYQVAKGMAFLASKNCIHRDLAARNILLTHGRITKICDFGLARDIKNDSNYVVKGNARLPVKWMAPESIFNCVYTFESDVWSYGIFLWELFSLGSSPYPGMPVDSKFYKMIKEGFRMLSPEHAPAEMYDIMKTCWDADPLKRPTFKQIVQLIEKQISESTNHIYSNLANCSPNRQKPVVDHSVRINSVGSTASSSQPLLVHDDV
eIF-2-alpha kinase GCN2 (Homo sapiens), sequence (Q9P2K8 whole entry, the tested form may be a part): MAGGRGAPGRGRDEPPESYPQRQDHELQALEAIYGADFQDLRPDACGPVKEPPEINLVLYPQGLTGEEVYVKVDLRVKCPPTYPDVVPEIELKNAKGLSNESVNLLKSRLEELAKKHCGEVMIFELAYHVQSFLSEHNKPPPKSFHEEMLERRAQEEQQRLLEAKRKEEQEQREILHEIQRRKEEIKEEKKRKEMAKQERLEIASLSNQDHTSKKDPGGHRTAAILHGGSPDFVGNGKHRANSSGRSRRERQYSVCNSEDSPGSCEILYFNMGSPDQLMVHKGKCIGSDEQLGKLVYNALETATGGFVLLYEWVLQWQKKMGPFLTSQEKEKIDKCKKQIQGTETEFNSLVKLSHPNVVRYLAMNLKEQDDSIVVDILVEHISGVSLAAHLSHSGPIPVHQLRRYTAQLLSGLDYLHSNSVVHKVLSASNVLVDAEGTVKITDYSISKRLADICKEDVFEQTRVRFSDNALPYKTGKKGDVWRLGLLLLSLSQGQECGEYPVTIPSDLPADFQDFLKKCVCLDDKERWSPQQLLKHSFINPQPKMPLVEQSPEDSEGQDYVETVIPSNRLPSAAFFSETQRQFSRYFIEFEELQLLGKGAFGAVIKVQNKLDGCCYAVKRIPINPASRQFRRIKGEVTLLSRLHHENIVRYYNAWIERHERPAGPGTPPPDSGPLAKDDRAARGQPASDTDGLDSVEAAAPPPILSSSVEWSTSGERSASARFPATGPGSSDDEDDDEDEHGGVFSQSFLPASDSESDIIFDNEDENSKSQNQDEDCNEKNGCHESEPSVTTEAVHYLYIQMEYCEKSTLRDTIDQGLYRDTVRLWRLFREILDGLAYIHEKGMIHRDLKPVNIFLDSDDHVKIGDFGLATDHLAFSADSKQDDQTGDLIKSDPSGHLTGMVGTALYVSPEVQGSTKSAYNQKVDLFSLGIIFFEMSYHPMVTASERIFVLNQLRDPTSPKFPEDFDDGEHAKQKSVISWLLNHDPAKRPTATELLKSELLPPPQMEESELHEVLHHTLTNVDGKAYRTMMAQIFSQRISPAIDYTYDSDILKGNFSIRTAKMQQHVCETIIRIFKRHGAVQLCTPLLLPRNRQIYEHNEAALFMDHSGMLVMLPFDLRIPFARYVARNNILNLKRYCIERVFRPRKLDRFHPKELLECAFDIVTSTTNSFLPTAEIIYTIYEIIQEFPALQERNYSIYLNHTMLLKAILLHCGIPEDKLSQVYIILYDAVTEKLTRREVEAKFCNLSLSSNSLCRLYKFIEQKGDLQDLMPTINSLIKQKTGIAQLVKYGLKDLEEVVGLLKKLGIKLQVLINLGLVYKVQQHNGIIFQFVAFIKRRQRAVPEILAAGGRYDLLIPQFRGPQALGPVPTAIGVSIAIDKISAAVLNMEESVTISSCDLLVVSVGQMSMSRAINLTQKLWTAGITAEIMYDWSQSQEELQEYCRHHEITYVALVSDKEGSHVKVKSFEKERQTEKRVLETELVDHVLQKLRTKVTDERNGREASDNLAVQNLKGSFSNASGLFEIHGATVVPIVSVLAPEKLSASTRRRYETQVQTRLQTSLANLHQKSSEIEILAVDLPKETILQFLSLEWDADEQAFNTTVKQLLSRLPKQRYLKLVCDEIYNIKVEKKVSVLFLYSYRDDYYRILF
Serine/threonine-protein kinase MARK1 (Homo sapiens), sequence (Q9P0L2 whole entry, looked up): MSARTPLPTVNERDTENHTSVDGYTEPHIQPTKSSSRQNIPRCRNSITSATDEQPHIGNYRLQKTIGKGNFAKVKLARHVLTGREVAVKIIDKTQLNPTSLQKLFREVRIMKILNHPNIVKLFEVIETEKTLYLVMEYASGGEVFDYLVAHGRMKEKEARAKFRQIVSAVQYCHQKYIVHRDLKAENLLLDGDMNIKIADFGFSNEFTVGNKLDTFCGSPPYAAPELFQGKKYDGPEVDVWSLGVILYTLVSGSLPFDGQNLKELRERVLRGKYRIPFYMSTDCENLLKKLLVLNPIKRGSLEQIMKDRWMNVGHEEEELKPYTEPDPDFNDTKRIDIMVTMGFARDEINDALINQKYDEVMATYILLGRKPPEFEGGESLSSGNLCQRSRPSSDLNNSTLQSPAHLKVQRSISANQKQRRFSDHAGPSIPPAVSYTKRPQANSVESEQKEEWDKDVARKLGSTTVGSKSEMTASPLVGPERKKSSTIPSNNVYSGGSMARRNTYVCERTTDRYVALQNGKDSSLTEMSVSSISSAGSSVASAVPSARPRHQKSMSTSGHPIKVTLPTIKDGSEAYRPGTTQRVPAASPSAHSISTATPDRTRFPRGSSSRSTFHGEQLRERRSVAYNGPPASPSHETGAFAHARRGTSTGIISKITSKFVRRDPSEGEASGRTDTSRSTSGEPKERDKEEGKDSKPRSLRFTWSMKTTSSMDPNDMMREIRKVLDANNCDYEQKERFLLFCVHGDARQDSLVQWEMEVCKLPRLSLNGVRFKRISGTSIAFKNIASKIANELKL
Serine/threonine-protein kinase 24 (Homo sapiens), sequence (Q9Y6E0 whole entry, looked up): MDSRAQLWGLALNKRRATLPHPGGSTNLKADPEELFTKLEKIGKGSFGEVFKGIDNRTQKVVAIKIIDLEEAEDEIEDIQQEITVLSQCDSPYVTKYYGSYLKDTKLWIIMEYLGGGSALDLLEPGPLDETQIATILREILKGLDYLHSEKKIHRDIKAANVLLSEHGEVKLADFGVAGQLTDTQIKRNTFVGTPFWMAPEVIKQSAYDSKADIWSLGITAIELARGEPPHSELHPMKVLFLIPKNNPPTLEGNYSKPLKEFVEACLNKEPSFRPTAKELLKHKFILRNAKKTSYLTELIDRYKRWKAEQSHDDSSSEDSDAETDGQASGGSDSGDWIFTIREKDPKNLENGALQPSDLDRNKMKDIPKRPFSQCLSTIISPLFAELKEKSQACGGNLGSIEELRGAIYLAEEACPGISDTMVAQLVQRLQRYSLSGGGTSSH

For `CCN1CCN(Cc2ccc(NC(=O)c3ccc(C)c(/C=C/c4cnc5[nH]ccc5c4OC)c3)cc2C(F)(F)F)CC1`, the inhibition – broadly, the change of the read-out against control, counted positive when it falls – in [1] is 80%; in assay [3], -8.7%. The results for the residual activity in assay [2] and in [4] were 100% and 0.15%, respectively.

Consider `CCN1CCN(Cc2ccc(NC(=O)c3ccc(C)c(Oc4ccnc5[nH]ccc45)c3)cc2C(F)(F)F)CC1`, for which the inhibition result in assay [5] and in assay [6] was “inactive” throughout. For the same compound, the inhibition in assay [7] was found to be 83.4%; in assay [8] it was 1.3%.

For `CNc1cc(Oc2cc(C(=O)Nc3cc(N4CCN(C)CC4)cc(C(F)(F)F)c3)ccc2C)ncn1`, the values for the inhibition in assay [9], in assay [10] and in assay [11] were 2.5%, 5.5% and -9.9%, respectively.
